The record followed here is ChEMBL document CHEMBL1149966 (Bioorg Med Chem Lett, 1997).

One may read the pEC50 as the negative decadic logarithm of the EC50, by convention in mol/L. The Cmax is the peak of the concentration-time curve.

Data set [1] relates to Human immunodeficiency virus 1. Kind of data set: The activity against HIV multiply mutated strain M36M/I,V82V/A was determined from patient number 304. It counts as functional, organism-based.
Data set [2] relates to Human immunodeficiency virus 1. Put plainly: The activity against mutant HIV molecular clone wt (pNL4-3) was determined. In kind it is functional, organism-based.
In data set [3] the test system is Human immunodeficiency virus 1. Kind of data set: The activity against HIV mutant strain V82F was determined from patient number 313. In kind it is functional, organism-based.
The test system of data set [4] is Human immunodeficiency virus 1. Kind of data set: The activity against mutant HIV molecular clone V82F was determined. It counts as functional, organism-based.
In data set [5] the test system is Human immunodeficiency virus 1. Put plainly: The activity against HIV was determined from patient number 313. In kind it is functional, organism-based.
Data set [6] deals with Human immunodeficiency virus 1. Kind of data set: The activity against HIV mutant strain V82S was determined from patient number 337. In kind it is functional, organism-based.
Data set [7] has as its system MT4. Put plainly: Inhibitory potency towards recombinant HIV-1 3B in MT-4 cell was evaluated in 0% human plasma. It counts as functional, cell-based.
The subject of data set [8] is Human immunodeficiency virus 1. Kind of data set: The activity against HIV mutant strain V82A was determined from patient number 302. In kind it is functional, organism-based.
The test system of data set [9] is Human immunodeficiency virus 1. Kind of data set: The activity against HIV was determined from patient number 129. It counts as functional, organism-based.
The test system of data set [10] is Human immunodeficiency virus 1. Put plainly: The activity against mutant HIV molecular clone V82T was determined. In kind it is functional, organism-based.
Data set [11] relates to Human immunodeficiency virus 1. Put plainly: The activity against HIV was determined from patient number 337. It counts as functional, organism-based.
For data set [12], the system named is Human immunodeficiency virus 1. Kind of data set: The activity against HIV was determined from patient number 304. It counts as functional, organism-based.
Data set [13] concerns Rattus norvegicus. Kind of data set: Terminal phase half-life was evaluated in vivo in rat at a dose of 5 mg/kg by intra venous administration. To be noted: iv. It counts as ADME, organism-based. Further details: dose 5 mg/kg.
Data set [14] deals with MT4. Kind of data set: Inhibitory potency towards recombinant HIV-1 3B in MT-4 cell was evaluated in 50% human plasma. It counts as functional, cell-based.
Data set [15] has as its system Human immunodeficiency virus 1. Kind of data set: The activity against mutant HIV molecular clone V82A was determined. It counts as functional, organism-based.
The test system of data set [16] is MT4. Kind of data set: Inhibitory potency towards recombinant HIV-1 3B in MT-4 cell using cytopathic effect as endpoint was evaluated in 0% human plasma. In kind it is functional. Background: Protection from cytopathic effect is a common read-out in antiviral testing.
Data set [17] has as its system Human immunodeficiency virus 1. Kind of data set: The activity against HIV was determined from patient number 302. In kind it is functional, organism-based.
Data set [18] has as its system Rattus norvegicus. Put plainly: Oral bioavailability in rat (dose 5 mg/kg). It counts as ADME, organism-based. To be noted: in vivo.
The subject of data set [19] is Rattus norvegicus. Kind of data set: Maximum plasma concentration was evaluated in vivo in rat at a dose of 5 mg/kg by oral administration. In kind it is ADME, organism-based. The arrangement: dose 5 mg/kg, route oral.
The test system of data set [20] is Human immunodeficiency virus 1. Kind of data set: The activity against multiply mutated strain M36I,I54V,A71V,V82T was determined from patient number 129. In kind it is functional, organism-based.

Molecules are shown by their SMILES. pEC50: −log10 of the molar value. “And” between values parts separate entries of the source, which are not always exact repeats. Equal entries are not always repeated.

With `CC(C)c1nc(CN(C)C(=O)N[C@@H](C(=O)N[C@@H](Cc2ccccc2)C[C@H](O)[C@H](Cc2ccccc2)NC(=O)OCc2cncs2)C(C)C)cs1`, the negative-log EC50 (pEC50) was 7.23 in data set [1]; 6.86 in data set [2]; 7.37 in data set [3]; 6.56 in [4]; 7.46 in [5]; 7.66 in [6]. For the same compound, the pEC50 with MT4 [7] is 6.92; in data set [8], 7.37; in [9], 8.30; in data set [10], 6.45; in [11], 7.72; in data set [12], 7.46. Also, the negative logarithm of the EC50 (pEC50) in the data set with MT4 [14] is 6.06; in [15] it was 6.92; in data set [17], 7.34. Also, the T1/2 with Rattus norvegicus [13] is 1.8 h and 1.41 h and 0.63 h. In addition, the CCIC50 in the data set on MT4 [16] came out at 27 µM.
In the case of `CC(C)c1nc(CN(C)C(=O)N[C@H](C(=O)N[C@@H](Cc2ccccc2)C[C@H](O)[C@H](Cc2ccccc2)NC(=O)OCc2cncs2)C(C)C)cs1` [RITONAVIR], the pEC50 in [1] is 7.27; in data set [2], 7.26; in data set [3] it was 6.91; in data set [4] it was 6.51; in [5], 7.46; in [6], 6.84. Also, the pEC50 with MT4 [7] is 7.05; in data set [8], 7.49; in [9], 8.30; in data set [10], 6.50; in data set [11], 7.46; in data set [12], 7.72. Moreover, the pEC50 is 5.97 in the data set with MT4 [14], 6.64 in [15] and 7.19 in [20]. For the same compound, the F with Rattus norvegicus [18] was 70.7% and 37.4% and 29.9%. Moreover, the highest concentration (Cmax) in the data set on Rattus norvegicus [19] is 1.36 µg/mL and 3.58 µg/mL. Further, in the data set with MT4 [16], the CCIC50 was determined as 35 µM.
